{"source": "patent US7312205B2", "about": "“Methods and compositions for inhibiting tumor growth” (Novelix Pharmaceuticals, Inc., priority 2003, dated 2007)", "key": {"[1]": {"tested_on": "liposarcoma line (ATCC HTB-92)", "assay": "Growth inhibition in liposarcoma line ATCC HTB-92 (cell survival vs untreated controls)", "type": "cell-based", "description": "(§1) Examples 1 and 2 show direct comparisons between comparative compound A (betulic acid) and a novel derivative (compound B) in paired growth assays (cell count decrease after 3 days after a single application of the indicated concentrations of the respective compounds on day 1).\nComparison of the efficacy of comparative compound (A) (betulic acid) with that of compound (B) (protected betulic acid trisester) in a liposarcoma line (ATCC HTB-92). The X-axis indicates the concentration in μg/ml of compounds A and B, respectively, the Y-axis gives the cell survival rate in percent of the untreated controls. […]"}, "melanoma cell line 518A2": {"tested_on": "melanoma cell line 518A2", "assay": "Growth inhibition in melanoma cell line 518A2 (cell survival vs untreated controls)", "type": "cell-based", "description": "as §1\nComparison of compound (A) (betulic acid) with compound (B) (protected betulic acid trisester)—Growth inhibition in melanoma cell line 518A2 (obtained from Peter Schrier, Leiden, The Netherlands) […]. The X-axis indicates the concentration in μg/ml of compounds A and B, respectively, the Y-axis gives the cell survival rate in percent of the untreated controls.\nComparison of the effects of different betulic acid derivatives according to the invention and of the comparative compound (betulic acid), respectively, on various melanoma-sarcoma lines. The data each refer to cell survival rates in percent (mean values) as against untreated cell cultures.\nSurvival in percent as with all other data after 3 days of cell culture after a single application on day 1"}, "[2]": {"conditions": "liposarcoma ATCC HTB-92, 0.3 μg/ml"}, "[3]": {"conditions": "liposarcoma ATCC HTB-92, 0.6 μg/ml"}, "[4]": {"conditions": "liposarcoma ATCC HTB-92, 1 μg/ml"}, "[5]": {"conditions": "liposarcoma ATCC HTB-92, 1.25 μg/ml"}, "[6]": {"conditions": "liposarcoma ATCC HTB-92, 2.5 μg/ml"}, "[7]": {"conditions": "liposarcoma ATCC HTB-92, 5 μg/ml"}, "[8]": {"conditions": "liposarcoma ATCC HTB-92, 10 μg/ml"}}}
{"smiles": "C=C(C)[C@@H]1CC[C@]2(C(=O)OCC(N)(CO)CO)CC[C@]3(C)[C@H](CC[C@@H]4[C@@]5(C)CC[C@H](OC(C)=O)C(C)(C)[C@@H]5CC[C@]43C)[C@@H]12", "note": "[Compound B, Acetyl betulic acid-2-amino-3-hydroxy-2-hydroxymethyl propyl ester]", "values": [{"measurement": "survival in %", "setting": "[1]; [2]", "value": 89.5, "unit": "%"}, {"measurement": "survival in %", "setting": "[1]; [3]", "value": 70.7, "unit": "%"}, {"measurement": "survival in %", "setting": "[1]; [4]", "value": 12.0, "unit": "%"}, {"measurement": "survival in %", "setting": "[1]; [5]", "value": 2.9, "unit": "%"}, {"measurement": "survival in %", "setting": "[1]; [6]", "value": 3.0, "unit": "%"}, {"measurement": "survival in %", "setting": "[1]; [7]", "value": 0.0, "unit": "%"}, {"measurement": "survival in %", "setting": "[1]; [8]", "value": 0.0, "unit": "%"}, {"measurement": "Survival in % melanoma", "setting": "melanoma cell line 518A2; Test #1: stock 50 mg/ml in EtOH, 1.0 μg/ml, 3 days", "value": 50, "unit": "%"}, {"measurement": "Survival in % melanoma", "setting": "melanoma cell line 518A2; Test #1: stock 50 mg/ml in EtOH, 2.0 μg/ml, 3 days", "value": 0.5, "unit": "%"}, {"measurement": "Survival in % melanoma", "setting": "melanoma cell line 518A2; Test #1: stock 50 mg/ml in EtOH, 3.0 μg/ml, 3 days", "value": 0.0, "unit": "%"}, {"measurement": "Survival in % melanoma", "setting": "melanoma cell line 518A2; Test #1: stock 50 mg/ml in EtOH, 4.0 μg/ml, 3 days", "value": 0.0, "unit": "%"}, {"measurement": "Survival in % melanoma", "setting": "melanoma cell line 518A2; Test #2: inclusion compound, 5.9 mg/ml in 266 mg/ml HBC in H2O, 1.0 μg/ml, 3 days", "value": 65, "unit": "%"}, {"measurement": "Survival in % melanoma", "setting": "melanoma cell line 518A2; Test #2: inclusion compound, 5.9 mg/ml in 266 mg/ml HBC in H2O, 2.0 μg/ml, 3 days", "value": 25, "unit": "%"}, {"measurement": "Survival in % melanoma", "setting": "melanoma cell line 518A2; Test #2: inclusion compound, 5.9 mg/ml in 266 mg/ml HBC in H2O, 3.0 μg/ml, 3 days", "value": 0.0, "unit": "%"}, {"measurement": "Survival in % melanoma", "setting": "melanoma cell line 518A2; Test #2: inclusion compound, 5.9 mg/ml in 266 mg/ml HBC in H2O, 4.0 μg/ml, 3 days", "value": 0.0, "unit": "%"}, {"measurement": "Survival in % melanoma", "setting": "melanoma cell line 518A2; Test #3: inclusion compound, 20 mg/ml in 266 mg/ml HBC in 50% EtOH/50% H2O, 1.0 μg/ml, 3 days", "value": 77, "unit": "%"}, {"measurement": "Survival in % melanoma", "setting": "melanoma cell line 518A2; Test #3: inclusion compound, 20 mg/ml in 266 mg/ml HBC in 50% EtOH/50% H2O, 2.0 μg/ml, 3 days", "value": 24, "unit": "%"}, {"measurement": "Survival in % melanoma", "setting": "melanoma cell line 518A2; Test #3: inclusion compound, 20 mg/ml in 266 mg/ml HBC in 50% EtOH/50% H2O, 3.0 μg/ml, 3 days", "value": 0.0, "unit": "%"}, {"measurement": "Survival in % melanoma", "setting": "melanoma cell line 518A2; Test #3: inclusion compound, 20 mg/ml in 266 mg/ml HBC in 50% EtOH/50% H2O, 4.0 μg/ml, 3 days", "value": 0.0, "unit": "%"}, {"measurement": "Survival in % melanoma", "setting": "melanoma cell line 518A2; Test #4: inclusion compound, 25 mg/ml in 200 mg/ml HGC in 50% EtOH/50% H2O, 1.0 μg/ml, 3 days", "value": 59, "unit": "%"}, {"measurement": "Survival in % melanoma", "setting": "melanoma cell line 518A2; Test #4: inclusion compound, 25 mg/ml in 200 mg/ml HGC in 50% EtOH/50% H2O, 2.0 μg/ml, 3 days", "value": 4, "unit": "%"}, {"measurement": "Survival in % melanoma", "setting": "melanoma cell line 518A2; Test #4: inclusion compound, 25 mg/ml in 200 mg/ml HGC in 50% EtOH/50% H2O, 3.0 μg/ml, 3 days", "value": 0.0, "unit": "%"}, {"measurement": "survival in %", "setting": "melanoma cell line 518A2; melanoma 518A2, 0.3 μg/ml", "value": 83.0, "unit": "%"}, {"measurement": "survival in %", "setting": "melanoma cell line 518A2; melanoma 518A2, 0.6 μg/ml", "value": 56.3, "unit": "%"}, {"measurement": "survival in %", "setting": "melanoma cell line 518A2; melanoma 518A2, 1 μg/ml", "value": 11.3, "unit": "%"}, {"measurement": "survival in %", "setting": "melanoma cell line 518A2; melanoma 518A2, 1.25 μg/ml", "value": 10.3, "unit": "%"}, {"measurement": "survival in %", "setting": "melanoma cell line 518A2; melanoma 518A2, 2.5 μg/ml", "value": 2.8, "unit": "%"}, {"measurement": "survival in %", "setting": "melanoma cell line 518A2; melanoma 518A2, 5 μg/ml", "value": 0.0, "unit": "%"}, {"measurement": "survival in %", "setting": "melanoma cell line 518A2; melanoma 518A2, 10 μg/ml", "value": 0.0, "unit": "%"}, {"measurement": "activity relative to comparative compound (A)", "setting": "melanoma cell line 518A2; melanoma cell line 518A2, from ED50", "value": "up to 7 times"}]}
{"smiles": "C=C(C)[C@@H]1CC[C@]2(C(=O)NC(CO)(CO)CO)CC[C@]3(C)[C@H](CC[C@@H]4[C@@]5(C)CC[C@H](OC(C)=O)C(C)(C)[C@@H]5CC[C@]43C)[C@@H]12", "note": "[Compound C, Acetyl betulic acid-N-(1,1-bis(hydroxymethyl)-2-hydroxyethyl)formamide]", "values": [{"measurement": "survival in %", "setting": "[1]; [2]", "value": 96, "unit": "%"}, {"measurement": "survival in %", "setting": "[1]; [3]", "value": 82, "unit": "%"}, {"measurement": "survival in %", "setting": "[1]; [4]", "value": 81, "unit": "%"}, {"measurement": "Survival in % melanoma", "setting": "melanoma cell line 518A2; melanoma 518A2, 0.25 μg/ml", "value": 96, "unit": "%"}, {"measurement": "Survival in % melanoma", "setting": "melanoma cell line 518A2; melanoma 518A2, 0.5 μg/ml", "value": 93, "unit": "%"}, {"measurement": "survival in %", "setting": "melanoma cell line 518A2; melanoma 518A2, 1 μg/ml", "value": 67.5, "unit": "%"}]}
{"smiles": "C=C(C)[C@@H]1CC[C@]2(C(=O)O)CC[C@]3(C)[C@H](CC[C@@H]4[C@@]5(C)CC[C@H](O)C(C)(C)[C@@H]5CC[C@]43C)[C@@H]12", "note": "[A, betulic acid, reference compound]", "values": [{"measurement": "survival in %", "setting": "[1]; [2]", "value": 98.0, "unit": "%"}, {"measurement": "survival in %", "setting": "[1]; [3]", "value": 92.8, "unit": "%"}, {"measurement": "survival in %", "setting": "[1]; [4]", "value": 92.3, "unit": "%"}, {"measurement": "survival in %", "setting": "[1]; [5]", "value": 79.5, "unit": "%"}, {"measurement": "survival in %", "setting": "[1]; [6]", "value": 49.3, "unit": "%"}, {"measurement": "survival in %", "setting": "[1]; [7]", "value": 20.8, "unit": "%"}, {"measurement": "survival in %", "setting": "[1]; [8]", "value": 15.7, "unit": "%"}]}
